Molecular target: human GPR40 receptor (Homo sapiens, UniProt O14842)
Assay: IP1 accumulation measurements using the IPOne assay system
Type: cell-based
Settings: 1321N1 cells stably expressing human GPR40; stimulation 1 h at 37° C.
Protocol: IP1 accumulation measurements using the IPOne assay system—1321N1 cells stably expressing human GPR40 receptor (Euroscreen, Belgium) are seeded 24 h before the assay in white 384-well plates in culture medium containing 10% FCS, 1% Na-Pyruvate and 400 μg/mL G418. IP1 is assayed according to the manufacturer's description (Cisbio Bioassays, France). In brief, the assay is started by substitution of the culture medium by stimulation buffer (Hepes 10 mM, CaCl2 1 mM, MgCl2 0.5 mM, KCl 4.2 mM, NaCl 146 mM, glucose 5.5 mM and LiCl 50 mM, pH 7.4). Cells are stimulated for 1 h at 37° C., 5% CO2 by addition of the compounds that are diluted in stimulation buffer containing LiCl. Assays are stopped by adding HTRF-conjugates (IP1-d2 and Anti-IP1 cryptate Tb) and lysis buffer, provided by the manufacturer. After an incubation time of 1 h at room temperature plates are measured using an EnVision™, Perkin Elmer. The obtained fluorescence ratios at 665/615 […] are then used to calculate the pEC50 values using Assay Explorer 3.3 Software (Accelrys, Inc.) by interpolation using an IP1 reference curve and subsequent sigmoidal curve fitting allowing for a variable hill slope.

human GPR40 receptor, sequence (O14842 whole entry): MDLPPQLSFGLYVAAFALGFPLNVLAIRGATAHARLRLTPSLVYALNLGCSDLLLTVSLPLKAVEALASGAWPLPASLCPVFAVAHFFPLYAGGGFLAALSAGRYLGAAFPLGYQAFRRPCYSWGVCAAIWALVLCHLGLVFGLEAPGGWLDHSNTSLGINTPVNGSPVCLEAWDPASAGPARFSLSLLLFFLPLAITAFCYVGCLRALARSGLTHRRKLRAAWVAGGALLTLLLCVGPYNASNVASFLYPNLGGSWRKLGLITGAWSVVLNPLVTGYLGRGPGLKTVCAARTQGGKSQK

Row | Compound | EC50 [nM]
1 | O=C(O)C[C@@H]1COc2cc(O[C@@H]3CCc4c(Oc5ccccc5)ccc(F)c43)ccc21 [Example 1, {(S)-6-[(R)-7-Fluoro-4-phenoxy-indan-1-yloxy]-2,3-dihydro-benzofuran-3-yl}-acetic acid] | 4
2 | COc1cccc(Oc2ccc(F)c3c2CC[C@H]3Oc2ccc3c(c2)OC[C@H]3CC(=O)O)c1 [Example 2, {(S)-6-[(R)-7-Fluoro-4-(3-methoxy-phenoxy)-indan-1-yloxy]-2,3-dihydro-benzofuran-3-yl}-acetic acid] | 6
3 | COc1ccc(Oc2ccc(F)c3c2CC[C@H]3Oc2ccc3c(c2)OC[C@H]3CC(=O)O)cc1 [Example 3, {(S)-6-[(R)-7-Fluoro-4-(4-methoxy-phenoxy)-indan-1-yloxy]-2,3-dihydro-benzofuran-3-yl}-acetic acid] | 3
4 | Cc1ccccc1Oc1ccc(F)c2c1CC[C@H]2Oc1ccc2c(c1)OC[C@H]2CC(=O)O [Example 4, {(S)-6-[(R)-7-Fluoro-4-(2-methyl-phenoxy)-indan-1-yloxy]-2,3-dihydro-benzofuran-3-yl}-acetic acid] | 6
5 | Cc1cccc(C)c1Oc1ccc(F)c2c1CC[C@H]2Oc1ccc2c(c1)OC[C@H]2CC(=O)O [Example 5, {(S)-6-[(R)-7-Fluoro-4-(2,6-dimethyl-phenoxy)-indan-1-yloxy]-2,3-dihydro-benzofuran-3-yl}-acetic acid] | 70
6 | O=C(O)C[C@@H]1COc2cc(O[C@@H]3CCc4c(Oc5cccnc5)ccc(F)c43)ccc21 [Example 6, {(S)-6-[(R)-7-Fluoro-4-pyrid-3-yloxy-indan-1-yloxy]-2,3-dihydro-benzofuran-3-yl}-acetic acid] | 33
7 | O=C(O)C[C@@H]1COc2cc(O[C@@H]3CCc4c(Oc5ccccn5)ccc(F)c43)ccc21 [Example 7, {(S)-6-[(R)-7-Fluoro-4-pyrid-2-yloxy-indan-1-yloxy]-2,3-dihydro-benzofuran-3-yl}-acetic acid] | 32
8 | N#Cc1ccc(Oc2ccc(F)c3c2CC[C@H]3Oc2ccc3c(c2)OC[C@H]3CC(=O)O)cc1 [Example 8, {(S)-6-[(R)-4-(4-Cyano-phenoxy)-7-fluoro-indan-1-yloxy]-2,3-dihydro-benzofuran-3-yl}-acetic acid] | 4
9 | Cc1nccc(Oc2ccc(F)c3c2CC[C@H]3Oc2ccc3c(c2)OC[C@H]3CC(=O)O)n1 [Example 9, {(S)-6-[(R)-7-Fluoro-4-(2-methyl-pyrimid-4-yloxy)-indan-1-yloxy]-2,3-dihydro-benzofuran-3-yl}-acetic acid] | 155
10 | O=C(O)C[C@@H]1COc2cc(O[C@@H]3CCc4c(Oc5cnccn5)ccc(F)c43)ccc21 [Example 10, {(S)-6-[(R)-7-Fluoro-4-pyrazin-2-yloxy-indan-1-yloxy]-2,3-dihydro-benzofuran-3-yl}-acetic acid] | 35
11 | O=C(O)C[C@@H]1COc2cc(O[C@@H]3CCc4c(Oc5ccncc5)ccc(F)c43)ccc21 [Example 11, {(S)-6-[(R)-7-Fluoro-4-pyrid-4-yloxy-indan-1-yloxy]-2,3-dihydro-benzofuran-3-yl}-acetic acid] | 18
12 | O=C(O)C[C@@H]1COc2cc(O[C@@H]3CCc4c(Oc5nc6ccccc6s5)ccc(F)c43)ccc21 [Example 12, {(S)-6-[(R)-4-Benzothiazol-2-yloxy-7-fluoro-indan-1-yloxy]-2,3-dihydro-benzofuran-3-yl}-acetic acid] | 12
13 | Cn1c(Oc2ccc(F)c3c2CC[C@H]3Oc2ccc3c(c2)OC[C@H]3CC(=O)O)nc2ccccc21 [Example 13, {(S)-6-[(R)-7-Fluoro-4-(1-methyl-1H-benzoimidazol-2-yloxy)-indan-1-yloxy]-2,3-dihydro-benzofuran-3-yl}-acetic acid] | 216
14 | O=C(O)C[C@@H]1COc2cc(O[C@@H]3CCc4c(Oc5ccc(C(F)(F)F)cn5)ccc(F)c43)ccc21 [Example 14, {(S)-6-[(R)-7-Fluoro-4-(5-trifluoromethyl-pyrid-2-yloxy)-indan-1-yloxy]-2,3-dihydro-benzofuran-3-yl}-acetic acid] | 26
